Where two headings read alike, the source gives them in different places.
Columns and labels:
feeder insects [1] = assay: Vitamin E level in feeder insects fed diets with varying levels of vitamin E; assay type: in vivo, crickets; settings: approximately 21 days, fasted 24 to 36 hours
Experimental: Captive insectivores fed with current methods have been shown in past studies to be deficient in vitamin E. Feeder insects which contain between approximately 50 and approximately 200 International Units (“IU”) of vitamin E per kilogram dry matter provide health benefits to captive insectivores. All references in this disclosure to concentrations in feeder insects will be based on dry matter measurements, unless otherwise specified. Experiments were performed to determine the levels of vitamin E in a feeder insect diet that would produce in the feeder insect the targeted levels between 50 and 200 IU of vitamin E per kilogram dry matter for consumption by an insectivore. In the experiments, feeder insects were fasted for 24 to 36 hours prior to analysis to ensure that food in the gut was eliminated completely so as not to affect the results. The feeder insects were provided the diet containing varying levels of vitamin E. Vitamin E analysis was then performed using the method as described by Cort, et. al., Vitamin E Content of Feedstuffs Determined by High-Performance Liquid Chromatography Fluorescence, JOURNAL OF AGRICULTURAL AND FOOD CHEMISTRY, Vol. 31, 1330-1333 (1983).
There is a direct relationship between the vitamin E content in the diet and the vitamin E content in the feeder insect. Since the feeder insects were fasted prior to analysis, and the results were collected when the feeder insects were grown to approximately two-thirds of adult-size within approximately 21 days after introduction of the diet, the vitamin E content in the feeder insect is a result of a change in the composition of the tissues of the feeder insect, rather than the consequence of food in the gut of the feeder insect. Regression analysis was performed on the data to establish a best-fit line defined by an equation FI=0.241*D+33.5, where FI is the vitamin E content of feeder insect and D is the vitamin E content in the feeder insect diet. […]

mealworms = assay: Vitamin E content of mealworms fed a diet containing added vitamin E; assay type: in vivo
Experimental: There is a direct relationship between the vitamin E content in the diet and the vitamin E content in the feeder insect. Since the feeder insects were fasted prior to analysis, and the results were collected when the feeder insects were grown to approximately two-thirds of adult-size within approximately 21 days after introduction of the diet, the vitamin E content in the feeder insect is a result of a change in the composition of the tissues of the feeder insect, rather than the consequence of food in the gut of the feeder insect. Regression analysis was performed on the data to establish a best-fit line defined by an equation FI=0.241*D+33.5, where FI is the vitamin E content of feeder insect and D is the vitamin E content in the feeder insect diet. According to the present inventive method, with this established equation, a diet, fed to the feeder insect, having a vitamin E content of between approximately 69 and approximately 691 IU per kilogram produces the targeted 50 to 200 IU of vitamin E per kilogram dry matter in the feeder insect, respectively.

feeder insects [2] = assay: Lutein and zeaxanthin in diet versus lutein and zeaxanthin in feeder insect; settings: 64.9 mg/kg lutein in diet
Experimental: (§1) An experiment was performed to determine the levels of lutein and zeaxanthin in a feeder insect diet that would produce lutein and zeaxanthin levels in a feeder insect similar to those found in the wild.

[3] = as above; settings: cricket, whole feeder insect (dry matter), oral
Experimental: as §1

in vivo = settings: cricket
feeder insects [4] = test system: feeder insects
[5] = 3 milligrams of beta-carotene per kilogram of feeder insect diet
[6] = 65 milligrams of beta-carotene per kilogram of feeder insect diet

## vitamin E
Feeder insects [1]; 31 IU/kg vitamin E in diet
  Vitamin E in Feeder Insect: 38.7 IU/kg dry matter
Feeder insects [1]; 210 IU/kg vitamin E in diet
  Vitamin E in Feeder Insect: 89.2 IU/kg dry matter
Feeder insects [1]; 360 IU/kg vitamin E in diet
  Vitamin E in Feeder Insect: 117.7 IU/kg dry matter
mealworms
  vitamin E content compared with mealworms fed a control diet: more vitamin E

## CC1=C[C@H](O)CC(C)(C)[C@H]1/C=C/C(C)=C/C=C/C(C)=C/C=C/C=C(C)/C=C/C=C(C)/C=C/C1=C(C)C[C@@H](O)CC1(C)C [Lutein, lutein]
Feeder insects [2]
  Lutein in Feeder Insect: 800 µg/kg dry matter
[3]; 11.6 mg/kg diet
  concentration at 21 days: 33 ng/g
[3]; 13.3 mg/kg diet
  concentration at 21 days: 333 ng/g
[3]; 193.6 mg/kg diet
  concentration at 21 days: 11300 ng/g

## CC1=C(/C=C/C(C)=C/C=C/C(C)=C/C=C/C=C(C)/C=C/C=C(C)/C=C/C2=C(C)CCCC2(C)C)C(C)(C)CCC1 [Beta-carotene, beta-carotene]
In vivo; 0.2 mg/kg diet, Beta-carotene in Feeder Insect, 0.2 mg/kg beta-carotene in diet
  concentration at 21 days: 33.3 ng/g
In vivo; 0.3 mg/kg diet, Beta-carotene in Feeder Insect, 0.3 mg/kg beta-carotene in diet
  concentration at 21 days: 33.3 ng/g
In vivo; 3 mg beta-carotene per kg diet, beta-carotene in feeder insect by regression FI=219.2×D-2.92, 3 milligrams of beta-carotene per kilogram of feeder insect diet
  concentration at 21 days: 655 ng/g
In vivo; 11.7 mg/kg diet, Beta-carotene in Feeder Insect, 11.7 mg/kg beta-carotene in diet
  concentration at 21 days: 2720 ng/g
In vivo; 15.3 mg/kg diet, Beta-carotene in Feeder Insect, 15.3 mg/kg beta-carotene in diet
  concentration at 21 days: 3230 ng/g
In vivo; 65 mg beta-carotene per kg diet, beta-carotene in feeder insect by regression FI=219.2×D-2.92, 65 milligrams of beta-carotene per kilogram of feeder insect diet
  concentration at 21 days: 14300 ng/g
In vivo; beta-carotene in feeder insect by regression from Table C, diet with approximately 0.3 to approximately 1,496.4 milligrams of beta-carotene per kilogram
  concentration at 21 days: 62.8 to 328000 ng/g
In vivo; beta-carotene in feeder insect by regression from Table C, diet with approximately 68.4 to approximately 365 milligrams of beta-carotene per kilogram
  concentration at 21 days: 15000 to 80000 ng/g
Feeder insects [4]; [5]
  share of poultry's vitamin A requirement, by regression: approximately 78%
  share of the rat's vitamin A requirement, by regression: approximately 51%
  vitamin A yielded in feeder insect, by regression: 1,173 IU of vitamin A per kilogram dry matter
Feeder insects [4]; [6]
  share of poultry's vitamin A requirement, by regression: approximately 1600%
  share of the rat's vitamin A requirement, by regression: approximately 1000%
  vitamin A yielded in feeder insect, by regression: 23,000 IU of vitamin A per kilogram dry matter

— US9480278B2, “Diet for altering the nutrient composition of feeder insects” (Mark Finke LLC, priority 2012, dated 2016)
